In experiment [1] the test system is MCF7. Nature of the experiment: Cytotoxicity against human MCF7 cells by MTT assay. In kind it is functional, cell-based. (In general: Tetrazolium dyes change colour on reduction, which living cells bring about.)
Experiment [2] concerns Escherichia coli. In words: Antibacterial activity against Escherichia coli. It is filed as functional.
The subject of experiment [3] is Bel-7402. In words: Cytotoxicity against human Bel7402 cells by MTT assay. It is filed as functional, cell-based.
In experiment [4] the test system is A549. In words: Cytotoxicity against human A549 cells by MTT assay. It is filed as functional, cell-based.
The subject of experiment [5] is Staphylococcus aureus. In words: Antibacterial activity against Staphylococcus aureus. It is filed as functional.
Experiment [6] relates to BGC-823. Nature of the experiment: Cytotoxicity against human BGC823 cells by MTT assay. It is filed as functional, cell-based.
Experiment [7] relates to Candida albicans. In words: Antifungal activity against Candida albicans after 24 hrs. It is filed as functional.
Experiment [8] deals with HCT-8. Nature of the experiment: Cytotoxicity against human HCT8 cells by MTT assay. In kind it is functional, cell-based.

The values that follow come from ChEMBL document CHEMBL1158755, “Bromophenols coupled with derivatives of amino acids and nucleosides from the red alga Rhodomela confervoides” (J Nat Prod, 2005).

The IC50 is the concentration that inhibits the measured activity by half. Usually MIC50 stands for the lowest concentration that inhibits either 50% of growth or 50% of the strains tested, depending on the study. Read a low MIC50 as greater potency.

Molecules are shown by their SMILES. Where only a bound is given, the exact number is not on record here.

In the case of `OC[C@H]1O[C@@H](n2cnc3cnc(NCc4cc(O)c(O)c(Br)c4Br)nc32)[C@H](O)[C@@H]1O`, the IC50 in experiment [1], in experiment [3], in experiment [4], in experiment [6] and in experiment [8] was > 10 µg/mL throughout. The MIC50 in experiment [2], in experiment [5] and in experiment [7] was > 100 µg/mL in each case.

For `COC(=O)C1CCC(=O)N1Cc1cc(O)c(O)c(Br)c1Br` (configuration not stated), the IC50 in experiment [1], in experiment [3], in experiment [4], in experiment [6] and in experiment [8] was > 10 µg/mL each time. Besides, the MIC50 in experiment [2], in experiment [5] and in experiment [7] was > 100 µg/mL each time.

Regarding `COC(=O)C1CCC(=O)N1Cc1cc(O)c(O)c(Br)c1Cc1cc(O)c(O)c(Br)c1Br` (configuration not stated), the IC50 in experiment [1], in experiment [3], in experiment [4], in experiment [6] and in experiment [8] was > 10 µg/mL throughout. Also, the MIC50 in experiment [2], in experiment [5] and in experiment [7] was > 100 µg/mL each time.

Take `O=C(O)C1CCC(=O)N1Cc1cc(O)c(O)c(Br)c1Br` (configuration not stated): the IC50 in experiment [1], in experiment [3], in experiment [4], in experiment [6] and in experiment [8] was > 10 µg/mL in each case. In addition, the MIC50 in experiment [2], in experiment [5] and in experiment [7] was > 100 µg/mL each time.
